What all share (experiment): Bliss excess, mean over the matrix (fraction); higher = more synergy
For one assay, the system named is A375 (Melanoma). In short, it runs like this:
(§1)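 Cell lines grown in DMEM/F12 or RPMI with 10% FBS were plated in 1536-well plates and held 24 hours at 37°C, 5% CO2 before 72 hours of exposure to two-drug dose matrices, with DMSO typically at 0.2%. CellTiter-Glo 2.0 luminescence gave viability, which was converted to inhibition. Vehicle wells were set to 0 and blank wells to 1. Combination Emax is the second-highest inhibition in the matrix, and Bliss excess is the observed combination effect minus the expected EA + EB − EA·EB, where EA and EB are the single-agent effects.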

Assay [1] concerns BT-474 (Breast Carcinoma). The procedure, abridged: as §1
For the next assay, the system named is C32 (Melanoma). The procedure, abridged: as §1
Assay [2] relates to CAL-85-1 (Breast Carcinoma). In short, it runs like this:
as §1

Assay [3] deals with COR-L105 (Lung Adenocarcinoma). In short, it runs like this:
as §1

For a further assay, the system named is DK-MG (Glioblastoma). In short, it runs like this: as §1
In a further assay the test system is HT-144 (Melanoma). The procedure, abridged:
as §1

Assay [4] concerns IGROV-1 (Ovarian Carcinoma). The procedure, abridged:
as §1

For assay [5], the system named is KNS-62 (Squamous Cell Lung Carcinoma). The procedure, abridged:
as §1

For assay [6], the system named is L-363 (Plasma Cell Myeloma). In short, it runs like this:
as §1

In assay [7] the test system is MDA-MB-175-VII (Breast Carcinoma). The procedure, abridged:
as §1

For a further assay, the system named is MG-63 (Osteosarcoma). The procedure, abridged:
as §1

Assay [8] concerns NCI-H2023 (Non-Small Cell Lung Carcinoma). The procedure, abridged: as §1
The subject of assay [9] is NCI-H2170 (Squamous Cell Lung Carcinoma). The procedure, abridged: as §1
The test system of a further assay is NCI-H2452 (Mesothelioma). In short, it runs like this:
as §1

Assay [10] concerns OCI-M1 (Acute Myeloid Leukemia). The procedure, abridged: as §1
The test system of assay [11] is RS4-11 (B-Lymphoblastic Leukemia). The procedure, abridged:
as §1

Assay [12] concerns SBC-5 (Small Cell Lung Carcinoma). The procedure, abridged:
as §1

The subject of the next assay is SK-N-DZ (Neuroblastoma). The procedure, abridged:
as §1

Assay [13] deals with TK (B-Cell Non-Hodgkin's Lymphoma). In short, it runs like this: as §1

`COc1cccc2c1C(=O)c1c(O)c3c(c(O)c1C2=O)C[C@@](O)(C(=O)CO)C[C@@H]3O[C@H]1C[C@H](N)[C@H](O)[C@H](C)O1` [Doxorubicin] + Cc1cc2ncnn2cc1Nc1ncc2c(n1)n(C1CCOCC1)c(=O)n2C [AZD7648] (first compound max 1 µM, 7x7, partner max 10 µM): the Bliss excess with A375 (Melanoma) was 0.09; in assay [1], -0.0356; with C32 (Melanoma), 0.044; in assay [2], 0.0095; in assay [3], 0.022; in the assay with DK-MG (Glioblastoma) it was 0.0299. Besides, the Bliss excess in the assay with HT-144 (Melanoma) was 0.0302; in [4], 0.0222; in assay [5], -0.0075; in assay [6] it was 0.0622; in assay [7], -0.0228; in the assay on MG-63 (Osteosarcoma), 0.0908. The Bliss excess in [8] amounted to 0.0476; in assay [9] it was 0.0706; in the assay on NCI-H2452 (Mesothelioma), 0.0928; in [10] it was 0.102; in assay [11] it was 0.171; in assay [12] it was 0.0341. Besides, the Bliss excess in the assay on SK-N-DZ (Neuroblastoma) turned out to be 0.112; in assay [13], 0.0292.

As to `CS(=O)(=O)CCNCc1ccc(-c2ccc3ncnc(Nc4ccc(OCc5cccc(F)c5)c(Cl)c4)c3c2)o1` [Lapatinib] + C[C@@H](Oc1cc(-c2cnn(C3CCNCC3)c2)cnc1N)c1c(Cl)ccc(F)c1Cl [Crizotinib] (first compound max 10 µM, 7x7, partner max 10 µM), the Bliss excess with A375 (Melanoma) is -0.0461; in assay [1] it was 0.0284; in the assay on C32 (Melanoma), -0.0067; in assay [2], 0.0028; in [3] it was -0.004; in the assay on DK-MG (Glioblastoma), -0.0556. For the same compound, the Bliss excess is -0.0643 in the assay on HT-144 (Melanoma); -0.0518 in assay [4]; -0.0527 in assay [5]; -0.0208 in [6]; -0.0129 in assay [7]; -0.064 in the assay with MG-63 (Osteosarcoma). Further, the Bliss excess in assay [8] is -0.026; in assay [9], -0.0026; in the assay on NCI-H2452 (Mesothelioma) it was -0.0932; in assay [10], -0.0347; in assay [11] it was -0.0183; in assay [12], 0.0601. Besides, the Bliss excess is -0.0702 in the assay with SK-N-DZ (Neuroblastoma) and 0.0129 in assay [13].

Turning to `CC(=O)c1c(C)c2cnc(Nc3ccc(N4CCNCC4)cn3)nc2n(C2CCCC2)c1=O` [Palbociclib] + CC1(C)CCC(CN2CCN(c3ccc(C(=O)NS(=O)(=O)c4ccc(NCC5CCOCC5)c([N+](=O)[O-])c4)c(Oc4cnc5[nH]ccc5c4)c3)CC2)=C(c2ccc(Cl)cc2)C1 [Venetoclax] (first compound max 10 µM, 7x7, partner max 1 µM), the Bliss excess is -0.0197 in the assay on A375 (Melanoma); -0.0444 in assay [1]; -0.0322 with C32 (Melanoma); -0.0457 in assay [2]; -0.0399 in assay [3]; 0.0131 with DK-MG (Glioblastoma). In addition, the Bliss excess in the assay with HT-144 (Melanoma) was -0.0356; in [4], 0.0026; in assay [5], -0.0152; in assay [6], -0.0262; in assay [7] it was -0.0174; with MG-63 (Osteosarcoma) it was 0.0196. The Bliss excess is -0.0067 in [8]; 0.0227 in [9]; -0.0188 in the assay with NCI-H2452 (Mesothelioma); 0.007 in assay [10]; 0.0385 in assay [11]; 0.0178 in assay [12]. The Bliss excess in the assay on SK-N-DZ (Neuroblastoma) was determined as 0.0824; in assay [13], 0.0332.

`CC(=O)c1c(C)c2cnc(Nc3ccc(N4CCNCC4)cn3)nc2n(C2CCCC2)c1=O` [Palbociclib] + Cc1c2c(nn1C)CSCc1cc(n(C)n1)CSc1cc(c3ccccc3c1)OCCCc1c(C(=O)O)n(C)c3c-2c(Cl)ccc13 [AZD5991] (first compound max 10 µM, 7x7, partner max 1 µM): the Bliss excess in the assay on A375 (Melanoma) is -0.0057; in assay [1], -0.0924; in the assay with C32 (Melanoma), -0.0069; in [2] it was -0.0101; in [3] it was -0.0088; in the assay on DK-MG (Glioblastoma) it was -0.0018. The Bliss excess with HT-144 (Melanoma) was -0.0757; in assay [4], 0.0122; in assay [5], -0.0142; in assay [6], -0.0147; in assay [7], 0.0232; in the assay on MG-63 (Osteosarcoma) it was 0.0096. The Bliss excess was -0.0335 in [8]; -0.0189 in [9]; -0.0651 in the assay on NCI-H2452 (Mesothelioma); 0.033 in assay [10]; -0.0519 in [11]; -0.0171 in assay [12]. Besides, the results for the Bliss excess (in the assay with SK-N-DZ (Neuroblastoma); in assay [13]) were 0.0655 and -0.0191, respectively.

For the compound `CC(=O)c1c(C)c2cnc(Nc3ccc(N4CCNCC4)cn3)nc2n(C2CCCC2)c1=O` [Palbociclib] + Cn1cnc2c(F)c(Nc3ccc(Br)cc3Cl)c(C(=O)NOCCO)cc21 [Selumetinib] (first compound max 10 µM, 7x7, partner max 10 µM), the Bliss excess in the assay with A375 (Melanoma) is 0.0027; in assay [1], -0.0418; with C32 (Melanoma) it was -0.0086; in assay [2], -0.0218; in assay [3], -0.0355; with DK-MG (Glioblastoma), -0.0133. Moreover, the Bliss excess with HT-144 (Melanoma) was -0.0029; in assay [4], 0.0255; in assay [5], 0.038; in assay [6], 0.0127; in [7], -0.0013; in the assay on MG-63 (Osteosarcoma), 0.0263. Moreover, the Bliss excess in [8] is -0.0313; in assay [9], -0.0284; in the assay on NCI-H2452 (Mesothelioma), -0.0682; in [10] it was 0.0125; in [11], -0.0881; in assay [12] it was 0.0396. Moreover, the Bliss excess was -0.0848 with SK-N-DZ (Neuroblastoma) and -0.0196 in assay [13].

With `COc1cccc(OCCCN)c1-c1cc(Nc2cnc(C#N)cn2)n[nH]1` [Prexasertib] + C=CCn1c(=O)c2cnc(Nc3ccc(N4CCN(C)CC4)cc3)nc2n1-c1cccc(C(C)(C)O)n1 [AZD1775] (first compound max 1 µM, partner max 1 µM), the Bliss excess with A375 (Melanoma) is 0.0888; in assay [1], -0.0223; with C32 (Melanoma), -0.0206; in assay [2] it was 0.124; in [3], 0.0157; in the assay on DK-MG (Glioblastoma) it was -0.0125. The Bliss excess is 0.0666 in the assay on HT-144 (Melanoma); -0.0343 in [4]; 0.0697 in assay [5]; 0.0204 in [6]; 0.106 in [7]; 0.141 in the assay with MG-63 (Osteosarcoma). The Bliss excess worked out at 0.0205 in assay [8]; 0.101 in [9]; 0.0473 in the assay with NCI-H2452 (Mesothelioma); 0.0152 in [10]; 0.0466 in assay [11]; 0.0356 in assay [12]. The Bliss excess in the assay with SK-N-DZ (Neuroblastoma) was 0.0202; in assay [13], -0.0252.

`COc1cccc(OCCCN)c1-c1cc(Nc2cnc(C#N)cn2)n[nH]1` [Prexasertib] + CCc1c2c(nc3ccc(O)cc13)-c1cc3c(c(=O)n1C2)COC(=O)[C@]3(O)CC [SN-38] (first compound max 1 µM, 7x7, partner max 0.3 µM): the Bliss excess with A375 (Melanoma) was -0.0224; in assay [1], -0.0075; in the assay with C32 (Melanoma), -0.126; in [2] it was 0.0699; in assay [3], -0.0404; with DK-MG (Glioblastoma), -0.0146. For the same compound, the Bliss excess was -0.0236 in the assay with HT-144 (Melanoma); -0.0131 in assay [4]; -0.0385 in assay [5]; 0.0377 in assay [6]; -0.0027 in assay [7]; -0.0315 in the assay on MG-63 (Osteosarcoma). The Bliss excess was -0.0527 in assay [8]; -0.0326 in assay [9]; 0.103 with NCI-H2452 (Mesothelioma); -0.0042 in [10]; 0.0066 in assay [11]; 0.0007 in [12]. Further, the Bliss excess was found to be 0.0205 in the assay with SK-N-DZ (Neuroblastoma) and 0.0138 in [13].
